# Experimental data from patent US12390447B2, “Sirtuin 6 protein deacylase (SIRT6) activators” (Wisconsin Alumni Research Foundation, priority 2019, dated 2025).
# Experiments:
# Type in all cases: biochemical
# SIRT6 [1] = target: T1, SIRT6 (Homo sapiens, UniProt Q8N6T7); test: Burst kinetic analysis of SIRT6 deacetylation; details: SIRT6 10 μM, 400 μM H3K9ac peptide, 500 μM NAD+
# Experimental: SIRT6 (10 μM) was mixed with either H3K9ac peptide (400 μM) or NAD^+ (500 μM) in 20 mM potassium phosphate pH 7.5 and preheated to 37° C. for 3 minutes. Reactions were initiated either through the addition of NAD^+ (500 μM final) or H3K9ac peptide (400 μM final) and quenched after 10-1800 seconds by the addition of 3% TFA final. For each experiment, a control reaction in which H3K9ac peptide was excluded was collected at each timepoint and subtracted from corresponding experimental reactions to control for NAD^+ degradation. Nicotinamide and deacetylated peptide product were quantified by reverse-phase HPLC as described in the rapid quench flow kinetics methods section.
# To further dissect the catalytic step(s) in kcat/Km,H3K9ac that are enhanced in the presence of activator, reaction conditions were set up to identify the existence of product ‘bursts’ during the first catalytic turnover. High concentrations of SIRT6 (10 μM) in the presence of 400 μM H3K9ac peptide were rapidly mixed with 500 μM NAD^+, and after an acid quench at different times, the products nicotinamide and deacetylated peptide were resolved and quantified by HPLC. […] The order of substrate mixing had no effect on the product curves.
# SIRT6 [2] = target: T1, SIRT6; test: Histone deacetylation assay with acid extracted histones, H3K9ac immunoblot; details: 50 μM compound; histones 75 μg/mL from SAHA-treated HEK293T cells; SIRT6 1 μM
# Experimental: HEK293T cells were cultured in Dulbecco's Modified Eagle Medium supplemented with 10% fetal bovine serum. Cells were treated with 10 μM SAHA for 24 hours prior to harvest. Cells were trypsinized and pelleted prior to washing twice with ice-cold PBS. Cells were then resuspended in 800 μL ice-cold 10 mM HEPES pH 7.4, 10 mM KCl, 0.05% NP-40, and histone deacetylase and protease inhibitors (1 mM sodium butyrate, 4 μM trichostatin A, 100 μM phenylmethylsulfonyl fluoride, 10 μg/mL leupeptin, and 10 μg/mL aprotinin) for 20 minutes. After a 1,000×g 10 minute spin at 4° C. the pelleted nuclei were resuspended in 0.2 M HCl and incubated on ice for 20 minutes. Following 10 minute spin at 21,000×g at 4° C. the acid extracted supernatant was neutralized with 1 M Tris-HCl pH 8 prior to BCA protein concentration measurement. Histone deacetylation assays were ran with 75 μg/mL extracted histones, 1 μM SIRT6, 50 μM CL5, CL5D or 5% DMSO control, 0.5 mM NAD^+, in 20 mM potassium phosphate pH 7.5. Reactions ran at 37° C. prior to quench with SDS loading dye and 5 minute boil. 540 ng of nuclei acid extract following sirtuin reaction were loaded for 15% SDS-PAGE followed by transfer to nitrocellulose. Membrane was blocked with 1% milk before blotted with anti-H3K9ac (Active Motiff 39917) 1:3000 and imaged. […] Bands were quantified using Image Studio Lite (LiCor). […]
# SIRT6 K160A = SIRT6 K160A (Homo sapiens, UniProt Q8N6T7, K160A); test: Steady-state deacetylation rate of SIRT6 K160A with or without CL5D; details: SIRT6 K160A 1 μM, H3K9ac 40 μM, CL5D 50 μM, 25 minutes
# SIRT6 K160A, sequence (Q8N6T7 whole entry K160A): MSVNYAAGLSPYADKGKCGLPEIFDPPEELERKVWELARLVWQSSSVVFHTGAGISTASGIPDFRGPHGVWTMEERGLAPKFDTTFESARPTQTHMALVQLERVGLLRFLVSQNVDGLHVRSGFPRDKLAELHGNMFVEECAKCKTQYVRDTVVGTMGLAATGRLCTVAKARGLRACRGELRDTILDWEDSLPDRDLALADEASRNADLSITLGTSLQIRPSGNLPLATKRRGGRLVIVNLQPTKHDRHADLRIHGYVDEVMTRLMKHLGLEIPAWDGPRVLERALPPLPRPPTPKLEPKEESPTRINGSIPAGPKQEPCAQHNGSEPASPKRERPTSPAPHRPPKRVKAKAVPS
# Experimental: (§1) All sirtuin deacylation assays were carried out at 37° C. in 20 mM potassium phosphate pH 7.5 with 0.5 mM NAD^+, 10% DMSO, and 20 μM H3K9ac or H3K9myr peptides, unless otherwise noted in legend, and quenched by the addition of 2% TFA final. Steady-state reactions were constrained to less than 20% substrate turnover to prevent product inhibition. A variety of times were required to monitor SIRT6 deacetylation (2-60 minutes) under this restraint given the ability to strongly activate catalysis. In these cases, specific activities were determined and either reported as is or as fold-activation of specific activity. Deacylation reactions were analyzed by reversed phase high-performance liquid chromatography on a Kinetex C18 column (100 Å, 100×4.6 mm, 2.6 μm, Phenomenex) by monitoring the formation of the deacylated product at 214 nm. Deacetylation reactions were analyzed using a gradient of 33-100% B (30% acetonitrile with 0.05% TFA) in 8 min at 1.6 mL min^−1. Demyristoylation reactions were analyzed using a gradient of 3 to 100% B (acetonitrile with 0.05% TFA) in 10 min at 1.6 mL min^−1. The product and substrate peaks were quantified and ratio of these allowed for quantification of product formation. Three independent experiments were performed for each condition with averages being plotted and error bars representing the standard deviation of these replicates. […]
# SIRT6 R65A = SIRT6 R65A (Homo sapiens, UniProt Q8N6T7, R65A); test: Steady-state deacetylation rate of SIRT6 R65A with or without CL5D; details: CL5D 50 μM
# SIRT6 R65A, sequence (Q8N6T7 whole entry R65A): as the sequence (Q8N6T7 whole entry K160A) above, with R65A, A160K counted along it
# Experimental: as §1
# SIRT6 K81A = SIRT6 K81A (Homo sapiens, UniProt Q8N6T7, K81A); test: Steady-state deacetylation rate of SIRT6 K81A with or without CL5D; details: SIRT6 K81A 1 μM, H3K9ac 40 μM, CL5D 50 μM, 25 minutes
# SIRT6 K81A, sequence (Q8N6T7 whole entry K81A): as the sequence (Q8N6T7 whole entry K160A) above, with K81A, A160K counted along it
# Experimental: as §1
# T1 sequence (Q8N6T7 whole entry): as the sequence (Q8N6T7 whole entry K160A) above, with A160K counted along it
smiles,measurement,setting,value
"O=C(O)c1ccc2c(c1)C(=O)N(c1ccc(N(C(=O)c3c(Cl)cc(Cl)cc3Cl)C(=O)c3c(Cl)cc(Cl)cc3Cl)c(Cl)c1)C2=O [CL-5D, 2-(3-chloro-4-(2,4,6-trichloro-N-(2,4,6-trichlorobenzoyl)benzamido)phenyl)-1,3-dioxoisoindoline-5-carboxylic acid]",rate enhancement in the presence of CL5D,SIRT6 [1],1.8 fold
same,SIRT6 deacetylation at H3K9 of whole histone substrate (in words),SIRT6 [2],stimulated
same,RateCL5D,SIRT6 K160A,0.126 ± 0.006 µM/min
same,activation of SIRT6 R65A (in words),SIRT6 R65A,cannot be activated
same,RateCL5D,"SIRT6 R65A; SIRT6 R65A 1 μM, H3K9ac 40 μM, 25 minutes",0.014 ± 0.004 µM/min
same,RateCL5D,SIRT6 K81A,0.125 ± 0.003 µM/min
